Values of other authors in US20210244731A1, “TABLET CONTAINING ANTITUMOR AGENT” (FUJIFILM Corporation, priority 2018, published 2021).

Molecular target: T1, FLT3 (Homo sapiens, UniProt P36888)
T1 sequence (P36888 27-993): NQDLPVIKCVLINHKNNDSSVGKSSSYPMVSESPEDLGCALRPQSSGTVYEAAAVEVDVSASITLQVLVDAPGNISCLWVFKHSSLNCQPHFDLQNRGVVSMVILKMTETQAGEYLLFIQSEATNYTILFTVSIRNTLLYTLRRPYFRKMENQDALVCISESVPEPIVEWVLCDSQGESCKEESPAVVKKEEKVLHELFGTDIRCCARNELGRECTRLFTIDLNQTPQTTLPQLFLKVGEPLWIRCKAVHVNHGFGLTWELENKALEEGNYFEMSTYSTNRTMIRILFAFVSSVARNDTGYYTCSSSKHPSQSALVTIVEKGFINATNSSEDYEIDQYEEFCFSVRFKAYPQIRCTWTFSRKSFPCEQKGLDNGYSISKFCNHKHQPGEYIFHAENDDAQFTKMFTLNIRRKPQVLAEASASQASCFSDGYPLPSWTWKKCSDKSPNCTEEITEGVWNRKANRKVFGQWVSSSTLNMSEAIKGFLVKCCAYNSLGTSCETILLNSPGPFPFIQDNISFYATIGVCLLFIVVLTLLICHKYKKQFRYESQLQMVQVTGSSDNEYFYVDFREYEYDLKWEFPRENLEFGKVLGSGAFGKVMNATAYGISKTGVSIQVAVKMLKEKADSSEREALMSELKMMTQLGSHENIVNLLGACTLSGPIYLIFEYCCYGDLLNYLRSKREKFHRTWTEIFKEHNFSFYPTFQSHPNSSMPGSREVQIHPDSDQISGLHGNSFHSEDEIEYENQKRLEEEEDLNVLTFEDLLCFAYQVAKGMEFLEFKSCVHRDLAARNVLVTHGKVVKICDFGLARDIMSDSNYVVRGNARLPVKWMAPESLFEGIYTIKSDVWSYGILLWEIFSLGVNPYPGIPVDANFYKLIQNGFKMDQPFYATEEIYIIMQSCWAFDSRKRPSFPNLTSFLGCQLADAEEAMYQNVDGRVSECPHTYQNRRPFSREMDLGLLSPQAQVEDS
Settings: statement of background, WO2015/056683A

FLT3 inhibitory action: FLT3 inhibitory action
Structure (SMILES): CCCNc1nc(Nc2ccc(C#N)cc2)ncc1C#CCCCNC(=O)[C@H](C)N(C)C(=O)/C=C/CN(C)C [Compound A, (S,E)-N-(1-((5-(2-((4-cyanophenyl)amino)-4-(propylamino)pyrimidin-5-yl)-4-pentyn-1-yl)amino)-1-oxopropan-2-yl)-4-(dimethylamino)-N-methyl-2-butenamide]
